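Values below derive from 48-hour exposures of cells grown in 96-well plates, with endpoints linearly interpolated between the two concentrations bracketing the appropriate inhibition level. GI50 = concentration required for 50% inhibition of growth. TGI is the concentration that stops growth completely.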
Columns and labels:
Assay in all cases: NCI anticancer screen, dose series, 48 h
786-0 renal = tested on: 786-0 renal
UACC-62 melanoma = tested on: UACC-62 melanoma
HCT-15 colon = tested on: HCT-15 colon
COLO 205 colon = tested on: COLO 205 colon
EKVX NSCLC = tested on: EKVX NSCLC
SK-MEL-2 melanoma = tested on: SK-MEL-2 melanoma
U251 CNS = tested on: U251 CNS
HCT-116 colon = tested on: HCT-116 colon
SK-OV-3 ovarian = tested on: SK-OV-3 ovarian
ACHN renal = tested on: ACHN renal
K-562 leukemia = tested on: K-562 leukemia
CCRF-CEM leukemia = tested on: CCRF-CEM leukemia
IGROV1 ovarian = tested on: IGROV1 ovarian
OVCAR-5 ovarian = tested on: OVCAR-5 ovarian
OVCAR-3 ovarian = tested on: OVCAR-3 ovarian
HCC-2998 colon = tested on: HCC-2998 colon
OVCAR-4 ovarian = tested on: OVCAR-4 ovarian
NCI-H226 lung = tested on: NCI-H226 lung
MDA-MB-231 breast = tested on: MDA-MB-231 breast
NCI-H460 lung = tested on: NCI-H460 lung
RXF 393 renal = tested on: RXF 393 renal
KM12 colon = tested on: KM12 colon
UACC-257 melanoma = tested on: UACC-257 melanoma
BT-549 breast = tested on: BT-549 breast
SF-268 CNS = tested on: SF-268 CNS
T-47D breast = tested on: T-47D breast
NCI-H23 lung = tested on: NCI-H23 lung
LOX IMVI melanoma = tested on: LOX IMVI melanoma
RPMI-8226 leukemia = tested on: RPMI-8226 leukemia
A549 NSCLC = tested on: A549 NSCLC
OVCAR-8 ovarian = tested on: OVCAR-8 ovarian
HOP-92 NSCLC = tested on: HOP-92 NSCLC
CAKI-1 renal = tested on: CAKI-1 renal
UO-31 renal = tested on: UO-31 renal
SF-295 CNS = tested on: SF-295 CNS
HL-60(TB) leukemia = tested on: HL-60(TB) leukemia
SNB-75 CNS = tested on: SNB-75 CNS
DU-145 prostate = tested on: DU-145 prostate
HS 578T breast = tested on: HS 578T breast
TK-10 renal = tested on: TK-10 renal
MALME-3M melanoma = tested on: MALME-3M melanoma
SNB-19 CNS = tested on: SNB-19 CNS
SK-MEL-28 melanoma = tested on: SK-MEL-28 melanoma
M14 melanoma = tested on: M14 melanoma
HT29 colon = tested on: HT29 colon
PC-3 prostate = tested on: PC-3 prostate
MCF7 breast = tested on: MCF7 breast
SR leukemia = tested on: SR leukemia
MOLT-4 leukemia = tested on: MOLT-4 leukemia
SK-MEL-5 melanoma = tested on: SK-MEL-5 melanoma
SW-620 colon = tested on: SW-620 colon
HOP-62 NSCLC = tested on: HOP-62 NSCLC
SN12C renal = tested on: SN12C renal
NCI/ADR-RES ovarian = tested on: NCI/ADR-RES ovarian
MDA-MB-435 = tested on: MDA-MB-435
NCI-H522 lung = tested on: NCI-H522 lung
SF-539 CNS = tested on: SF-539 CNS

SMILES: O=C(NCCCNc1cc(-c2cn(-c3ccccc3)nc2-c2cccc(O)c2)ccn1)c1ccc(F)cc1
- GI50 (786-0 renal): 1490 nM
- TGI (786-0 renal): 3.62 µM
- GI50 (UACC-62 melanoma): 2050 nM
- TGI (UACC-62 melanoma): 5.08 µM
- GI50 (HCT-15 colon): 1770 nM
- TGI (HCT-15 colon): 4.7 µM
- GI50 (COLO 205 colon): 1600 nM
- TGI (COLO 205 colon): 3.34 µM
- GI50 (EKVX NSCLC): 3.7 µM
- TGI (EKVX NSCLC): 69.1 µM
- GI50 (SK-MEL-2 melanoma): 2180 nM
- TGI (SK-MEL-2 melanoma): 5.06 µM
- GI50 (U251 CNS): 2960 nM
- TGI (U251 CNS): 10.9 µM
- GI50 (HCT-116 colon): 2140 nM
- TGI (HCT-116 colon): 7.38 µM
- GI50 (SK-OV-3 ovarian): 3.39 µM
- TGI (SK-OV-3 ovarian): 24.2 µM
- GI50 (ACHN renal): 3.36 µM
- TGI (ACHN renal): 73.6 µM
- GI50 (K-562 leukemia): 1930 nM
- TGI (K-562 leukemia): > 100 µM
- GI50 (CCRF-CEM leukemia): 1540 nM
- TGI (CCRF-CEM leukemia): > 100 µM
- GI50 (IGROV1 ovarian): 4.22 µM
- TGI (IGROV1 ovarian): 24.9 µM
- GI50 (OVCAR-5 ovarian): 2620 nM
- TGI (OVCAR-5 ovarian): 28.6 µM
- GI50 (OVCAR-3 ovarian): 4.03 µM
- TGI (OVCAR-3 ovarian): 40.7 µM
- GI50 (HCC-2998 colon): 1830 nM
- TGI (HCC-2998 colon): 3.4 µM
- GI50 (OVCAR-4 ovarian): 3.79 µM
- TGI (OVCAR-4 ovarian): > 100 µM
- GI50 (NCI-H226 lung): 3.7 µM
- TGI (NCI-H226 lung): 12.4 µM
- GI50 (MDA-MB-231 breast): 2090 nM
- TGI (MDA-MB-231 breast): 4.98 µM
- GI50 (NCI-H460 lung): 3.14 µM
- TGI (NCI-H460 lung): 11.5 µM
- GI50 (RXF 393 renal): 1630 nM
- TGI (RXF 393 renal): 4.63 µM
- GI50 (KM12 colon): 3.18 µM
- TGI (KM12 colon): 12.3 µM
- GI50 (UACC-257 melanoma): 1800 nM
- TGI (UACC-257 melanoma): 3.87 µM
- GI50 (BT-549 breast): 1590 nM
- TGI (BT-549 breast): 6.31 µM
- GI50 (SF-268 CNS): 2990 nM
- TGI (SF-268 CNS): 26.9 µM
- GI50 (T-47D breast): 1140 nM
- TGI (T-47D breast): 5.11 µM
- GI50 (NCI-H23 lung): 2810 nM
- TGI (NCI-H23 lung): 14.8 µM
- GI50 (LOX IMVI melanoma): 2270 nM
- TGI (LOX IMVI melanoma): 5.88 µM
- GI50 (RPMI-8226 leukemia): 1940 nM
- TGI (RPMI-8226 leukemia): 5.55 µM
- GI50 (A549 NSCLC): 3.65 µM
- TGI (A549 NSCLC): 20.8 µM
- GI50 (OVCAR-8 ovarian): 4.01 µM
- TGI (OVCAR-8 ovarian): 21.2 µM
- GI50 (HOP-92 NSCLC): 2130 nM
- TGI (HOP-92 NSCLC): 7.65 µM
- GI50 (CAKI-1 renal): 2840 nM
- TGI (CAKI-1 renal): 21.2 µM
- GI50 (UO-31 renal): 1780 nM
- TGI (UO-31 renal): 10.2 µM
- GI50 (SF-295 CNS): 1860 nM
- TGI (SF-295 CNS): 4.58 µM
- GI50 (HL-60(TB) leukemia): 2460 nM
- TGI (HL-60(TB) leukemia): 6.49 µM
- GI50 (SNB-75 CNS): 5.19 µM
- TGI (SNB-75 CNS): > 100 µM
- GI50 (DU-145 prostate): 4.63 µM
- TGI (DU-145 prostate): 53.4 µM
- GI50 (HS 578T breast): 2580 nM
- TGI (HS 578T breast): 10.8 µM
- GI50 (TK-10 renal): 4.47 µM
- TGI (TK-10 renal): 26.3 µM
- GI50 (MALME-3M melanoma): 1950 nM
- TGI (MALME-3M melanoma): 4.49 µM
- GI50 (SNB-19 CNS): 4.63 µM
- TGI (SNB-19 CNS): 29.5 µM
- GI50 (SK-MEL-28 melanoma): 1740 nM
- TGI (SK-MEL-28 melanoma): 4.12 µM
- GI50 (M14 melanoma): 1850 nM
- TGI (M14 melanoma): 4.28 µM
- GI50 (HT29 colon): 1700 nM
- TGI (HT29 colon): 5.43 µM
- GI50 (PC-3 prostate): 2810 nM
- TGI (PC-3 prostate): 15.7 µM
- GI50 (MCF7 breast): 2320 nM
- TGI (MCF7 breast): 9.92 µM
- GI50 (SR leukemia): 1650 nM
- TGI (SR leukemia): 6.53 µM
- GI50 (MOLT-4 leukemia): 2360 nM
- TGI (MOLT-4 leukemia): 14 µM
- GI50 (SK-MEL-5 melanoma): 1610 nM
- TGI (SK-MEL-5 melanoma): 3.55 µM
- GI50 (SW-620 colon): 2950 nM
- TGI (SW-620 colon): 9.55 µM
- GI50 (HOP-62 NSCLC): 2640 nM
- TGI (HOP-62 NSCLC): 10.8 µM
- GI50 (SN12C renal): 4.29 µM
- TGI (SN12C renal): 30.8 µM
- GI50 (NCI/ADR-RES ovarian): 2200 nM
- TGI (NCI/ADR-RES ovarian): 5.75 µM
- GI50 (MDA-MB-435): 1740 nM
- TGI (MDA-MB-435): 4.44 µM
- GI50 (NCI-H522 lung): 3.09 µM
- TGI (NCI-H522 lung): 11.4 µM
- GI50 (SF-539 CNS): 2150 nM
- TGI (SF-539 CNS): 5.41 µM

Reference: PubChem BioAssay (NCI)
